Data as given in publication PMC3969223, “Characterization of WZ4003 and HTH-01-015 as selective inhibitors of the LKB1-tumour-suppressor-activated NUAK kinases” (Biochemical Journal, 2013).

Tests used:
NUAK1 = target: T1, NUAK1 (Homo sapiens, UniProt O60285); test: GST–NUAK1 Sakamototide peptide kinase assay; format: biochemical; conditions: 200 μM Sakamototide, 100 μM [γ-32P]ATP; read-out: IC50 for NUAK1 (wild-type GST–NUAK1)
T1 construct: made in house; host or cells: HEK-293 cells, transient transfection of pEBG2T construct
T1 sequence (O60285 1-661): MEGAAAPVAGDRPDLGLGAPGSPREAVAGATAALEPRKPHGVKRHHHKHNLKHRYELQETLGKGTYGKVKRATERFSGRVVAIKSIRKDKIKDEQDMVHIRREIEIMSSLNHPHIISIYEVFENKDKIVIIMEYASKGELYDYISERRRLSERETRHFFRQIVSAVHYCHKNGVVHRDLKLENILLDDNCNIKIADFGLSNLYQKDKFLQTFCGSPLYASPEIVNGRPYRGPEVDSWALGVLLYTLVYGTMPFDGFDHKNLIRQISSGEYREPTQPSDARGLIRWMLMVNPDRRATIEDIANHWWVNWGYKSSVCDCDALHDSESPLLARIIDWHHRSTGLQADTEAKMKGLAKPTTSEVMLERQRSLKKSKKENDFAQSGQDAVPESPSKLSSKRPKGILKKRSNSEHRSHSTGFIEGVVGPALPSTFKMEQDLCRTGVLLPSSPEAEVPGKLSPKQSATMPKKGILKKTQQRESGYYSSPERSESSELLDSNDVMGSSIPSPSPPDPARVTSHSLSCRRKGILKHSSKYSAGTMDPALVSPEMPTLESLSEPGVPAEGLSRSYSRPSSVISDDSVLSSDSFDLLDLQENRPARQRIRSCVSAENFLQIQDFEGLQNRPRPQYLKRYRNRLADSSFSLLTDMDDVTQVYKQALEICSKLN
Method: Active GST–NUAK1, GST–NUAK1[A195T] and GST–NUAK2 enzymes were purified using glutathione–Sepharose from HEK-293 cell lysates 36–48 h following the transient transfection of pEBG2T mammalian constructs expressing N-terminal GST-tagged NUAK1, NUAK1[A195T] or NUAK2. For peptide kinase assays, 96-well plates were used, and each reaction was performed in triplicate. Each reaction was set up in a total volume of 50 μl containing 100 ng of NUAK1 (wild-type or A195T mutant) or NUAK2 in 50 mM Tris/HCl (pH 7.5), 0.1 mM EGTA, 10 mM magnesium acetate, 200 μM Sakamototide, 0.1 mM [γ-^32P]ATP (450–500 c.p.m./pmol) and the indicated concentrations of inhibitors dissolved in DMSO. After incubation for 30 min at 30°C, reactions were terminated by adding 25 mM (final) EDTA to chelate the magnesium. Then, 40 μl of the reaction mix was spotted on to P81 paper and immersed in 50 mM orthophosphoric acid. Samples were washed three times in 50 mM orthophosphoric acid followed by a single acetone rinse and air drying. The incorporation of [γ-^32P]ATP into Sakamototide was quantified by Cerenkov counting. The values were expressed as a percentage of the DMSO control. IC50 curves were developed and IC50 values were calculated using GraphPad Prism software.

[1] = tested on: ACC Ser79 phosphorylation; test: ACC Ser79 phosphorylation on EDTA-induced detachment, HEK-293; format: cell-based, human; conditions: HEK-293, 16 h
Method: HEK (human embryonic kidney)-293 and U2OS cells were cultured in DMEM (Dulbecco's modified Eagle's medium) supplemented with 10% FBS, 2 mM glutamine and 1×antibacterial/antimycotic solution. NUAK1^+/+ and NUAK1^−/− MEFs were cultured in DMEM supplemented with 10% (v/v) FBS and 2 mM glutamine, 1×antibacterial/antimycotic solution, 1% (v/v) non-essential amino acids and 1% (v/v) sodium pyruvate. HEK-293 Flp/In T-Rex cell lines were cultured in DMEM supplemented with 10% (v/v) FBS and 2 mM glutamine, 1×antibacterial/antimycotic solution, 100 μg/ml hygromycin and 15 μg/ml blasticidin. Supplementing the culture medium with 0.1 μg/ml doxycycline for 16–24 h induced protein expression in the HEK-293 Flp/In T-Rex cells. Cell counting was carried out using Invitrogen Countess following the manufacturer's protocol. A cell-detachment assay was carried out on HEK-293 cells using PBS-EDTA-based cell dissociation buffer as described previously. An inhibitor dose-dependence assay was carried out by treating the cells with various concentrations of the inhibitors as indicated in the Figure legends. The inhibitors were dissolved in DMSO and the total concentration of DMSO in the culture media never exceeded 1%. Transient transfections of HEK-293 cells were carried out using PEI [24]. Stable transfections were carried out in HEK-293 Flp/In T-Rex cells (Invitrogen) following the manufacturer's protocol. […]

U2OS cells = test: Cell proliferation assay (CellTiter 96 AQueous); format: cell-based; conditions: 10 μM, 5 days; same extent as shRNA-mediated NUAK1 knockdown
Method: Cell proliferation assays were carried out colorimetrically in 96-well plates using the CellTiter 96® AQueous Non-Radioactive Cell Proliferation Assay kit (Promega) following the manufacturer's protocol. Initially, 2000 cells per well were seeded for U2OS cells and 3000 cells per well were seeded for MEFs. The proliferation assays were carried out over 5 days in the presence or absence of 10 μM HTH-01-015 or WZ4003.

Compound | IC50 (NUAK1) [nM] | Inhibition of ACC Ser79 phosphorylation induced by cell detachment (in words) [1] | Proliferation of U2OS cells (in words) (U2OS cells)
Cc1nc(Nc2cnn(C3CCNCC3)c2)nc2c1N(C)C(=O)c1cc3ccccc3cc1N2C [HTH-01-015] | 100 | neither compound inhibited | suppressed proliferation
CCC(=O)Nc1cccc(Oc2nc(Nc3ccc(N4CCN(C)CC4)cc3OC)ncc2Cl)c1 [WZ4003] | 20 | neither compound inhibited | suppressed proliferation
CN1C(=O)c2ccccc2N(C)c2nc(Nc3cnn(C4CCNCC4)c3)ncc21 [XMD-17-51] | 1.5 |  | 
CN1C(=O)c2cc3ccccc3cc2N(C)c2nc(Nc3cnn(C4CCNCC4)c3)ncc21 [XMD-18-42] | 30 |  | 
